Measurements reported in patent publication US20020106657A1, “Genetic test to determine non-responsiveness to statin drug treatment” (priority 1999, published 2002).
Where “and” joins values, the source holds several entries; their conditions need not be identical. Identical values can stand only once. Like-named read-outs stand apart in the source and are kept apart here.

Tests used:
[1] = test system: CABG patients (saphenous-vein coronary-artery bypass grafts); details: cited from earlier work; for percentage of subjects with worsening of one or more grafts: 1351 subjects, average 4.3 years
[2] = test system: CABG patients (saphenous-vein coronary-artery bypass grafts); assay: Post-CABG Trial: angiographic graft worsening under lovastatin (aggressive vs moderate) and warfarin; assay type: in vivo, human
Experimental: A genetic association study was conducted by a within-case comparison ancillary to the Post Coronary Artery Bypass Graft Trial. (The Post Coronary Artery Bypass Graft Trial Investigators. The effect of aggressive lowering of low-density lipoprotein cholesterol levels and low-dose anticoagulation on obstructive changes in saphenous-vein coronary-artery bypass grafts, N. Engl. J. Med. 336:153-62 [1997]). A two stage design was followed. First, EBV-transformed lymphoblastoid cell lines were established for subjects from the Los Angeles (L.A.) cohort providing a permanent source of DNA for testing hypotheses related to atherosclerosis-related candidate genes. Then, significant results were tested in a second stage by genotyping all available subjects in the post-CABG trial using DNA isolated from whole blood shipped to Cedars-Sinai Medical Center from the other participating centers.
(§1) Participants were randomly assigned, following a two by two design, to receive 1) lovastatin therapy to lower the LDL-cholesterol level to within the range of 93-97 mg/dl (aggressive treatment group) or 132-136 mg/dl (moderate treatment group), and 2) placebo or low-dose warfarin (Post-CABG, 1997). Coronary angiograms of 1351 subjects at enrollment and an average of 4.3 years later were compared using a quantitative assessment of the severity of graft stenosis. Graft worsening was defined as a decrease in lumen diameter of 0.6mm or more. The percentage of subjects with worsening of one or more grafts was 39% in the aggressive treatment group compared to 51% in the moderate treatment group (p<0.00 1) and the mean percentage of grafts per patient showing worsening was 27% in the aggressive treatment group compared to 39% in the moderate treatment group (p<0.001).
(§2) A total of 1351 subjects from seven clinical centers throughout North America were included in the clinical trial and all were eligible as participants. Genetic material was received from 891 subjects who were included in this ancillary study. Inclusion criteria for the clinical trial were: bypass surgery 1 -11 years prior to the study; an LDL-cholesterol level of 130-175 mg/dl; and at least one patent vein graft as determined by angiography. Subjects were excluded if there was: (a) the likelihood of revascularization or death within the study period of 5 years; (b) unstable angina or myocardial infarction within six months before the start of the trial; (c) severe angina; (d) heart failure; or (e) contraindications to the study medications. Id. Subjects were randomly assigned in a two by two factorial design for treatment to lower LDL-cholesterol levels aggressively (target LDL 93-97 mg/dl) or moderately (target LDL 132-136 mg/dl) with lovastatin and cholestyramine if needed, and for treatment with either placebo or warfarin sufficient to maintain an international normalized ratio of less than 2. Id. Graft worsening was determined by comparing the initial angiogram at enrollment with a follow-up angiogram repeated an average of 4.3 years later. “Worsening” was defined as a reduction in diameter ≧0.6mm in diameter. “Subjects with worsening” were defined as those subjects with one or more grafts showing worsening.
Differences in baseline characteristics between treatment groups and between genotype groups were tested by one-way analysis of variance or Chi-square tests. Log-transformed HDL and TG values were used to perform all statistical analyses in order to adjust for their skewed distributions, but are presented in the tables as untransformed means ±SE. The association between graft worsening and LPL genotype was tested by Chi-square test. Mantel-Haenszel statistics were used for testing the interactions between genotypes and treatment groups. The proportion of grafts showing worsening per subject was used as the quantitative measurement of graft worsening, and multiple regression was performed to for this proportion as a function of genotype and treatment group to identify predictors. […]

CABG patients = assay: Post-CABG Trial: serum lipid levels and lovastatin dose needed, by treatment group or LPL HindIII genotype; assay type: in vivo, human
Experimental: as §1, §2
Differences in baseline characteristics between treatment groups and between genotype groups were tested by one-way analysis of variance or Chi-square tests. Log-transformed HDL and TG values were used to perform all statistical analyses in order to adjust for their skewed distributions, but are presented in the tables as untransformed means ±SE. The association between graft worsening and LPL genotype was tested by Chi-square test. Mantel-Haenszel statistics were used for testing the interactions between genotypes and treatment groups. The proportion of grafts showing worsening per subject was used as the quantitative measurement of graft worsening, and multiple regression was performed to for this proportion as a function of genotype and treatment group to identify predictors. Adjusted variables for this trait included age, gender, body mass index, smoking status, number of years since CABG, systolic and diastolic blood pressure, current medicine use, and family history as listed in Table 1. All statistical analyses were carried out with SAS software (version 6.12, SAS Institute, Cary, N.C.).
To investigate potential mechanisms for the association between the LPL HindIII 2/2 genotype and graft worsening, baseline characteristics and response of the subjects to the lipid-lowering action of lovastatin were compared between subjects (Table 3). There were no differences observed between the baseline values for total cholesterol, HDL-cholesterol, and triglycerides. However, a small difference in LDL-cholesterol was observed, 159.6±2.1 mg/dl for subjects with HindIII 2/2 compared with 155.0±0.7 for 1/1 and 1/2, p=0.04. […]

[3] = Aggressive treatment group (N = 430), mean ± SE
[4] = LPL HindIII 1/1 & 1/2 genotype (N = 817)
[5] = LPL HindIII 2/2 genotype (N = 74)
[6] = Moderate treatment group (N = 406), mean ± SE

SMILES: CC[C@H](C)C(=O)O[C@H]1C[C@@H](C)C=C2C=C[C@H](C)[C@H](CC[C@@H]3C[C@@H](O)CC(=O)O3)[C@H]21 [lovastatin]
- percentage of patients with atherosclerotic worsening of grafts within 4 years ([1]; aggressive lovastatin treatment (LDL-C lowered to 93-97 mg/dl)): 39%
- percentage of subjects with worsening of one or more grafts ([1]; aggressive treatment group, worsening = lumen diameter decrease 0.6 mm or more): 39%
- mean percentage of grafts per patient showing worsening ([1]; aggressive treatment group): 27%
- number of patients who required a second CABG procedure, lower than in moderate-treatment group ([1]; aggressive vs moderate lovastatin treatment group): 29%
- percentage of patients with atherosclerotic worsening of grafts within 4 years ([1]; moderate lovastatin treatment (LDL-C lowered to 132-136 mg/dl)): 51%
- percentage of subjects with worsening of one or more grafts ([1]; moderate treatment group): 51%
- mean percentage of grafts per patient showing worsening ([1]; moderate treatment group): 39%
- percent of subjects with graft worsening ([2]; HindIII 1/1 and 1/2 genotype, moderate drug treatment group): 49%
- percent of subjects with graft worsening ([2]; HindIII 1/1 or 1/2 genotype, aggressive lipid-lowering treatment group): 35%
- percent of subjects with graft worsening ([2]; HindIII 2/2 genotype, aggressive treatment group): 54%
- percent of subjects with graft worsening ([2]; HindIII 2/2 genotype, moderate lipid-lowering treatment group): 65%
- odds ratio for graft worsening, combined unfavorable LPL HindIII genotype with moderate drug treatment ([2]; HindIII 2/2 plus moderate lipid-lowering, 95% CI 1.4-8.7): 3.5
- odds ratio, effect of treatment on graft worsening ([2]; adjusted for / stratified by LPL HindIII genotype, 95% CI 1.32-2.4): 1.78 and 1.8
- odds ratio for graft worsening, moderate vs aggressive drug treatment ([2]; within LPL HindIII 1/1 and 1/2 genotype group, 95% CI 1.3 to 2.4): 1.8
- Steady state lipid levels: HDL cholesterol (CABG patients; [3]): 44.9 ± 0.6 mg/dL
- Steady state lipid levels: LDL cholesterol (CABG patients; [3]): 97.1 ± 1.3 mg/dL
- Steady state lipid levels: Total cholesterol (CABG patients; [3]): 172.6 ± 1.6 mg/dL
- Steady state lipid levels: Triglycerides (CABG patients; [3]): 157.4 ± 4.5 mg/dL
- Lipid change: HDL cholesterol (CABG patients; [4]): 14.2 ± 1.0%
- Lipid change: LDL cholesterol (CABG patients; [4]): 45.1 ± 1.5%
- Lipid change: Total cholesterol (CABG patients; [4]): 15.2 ± 0.6%
- Lipid change: Triglycerides (CABG patients; [4]): 8.2 ± 2.0%
- Steady state lipid levels: HDL cholesterol (CABG patients; [4]): 44.1 ± 0.4 mg/dL
- Steady state lipid levels: LDL cholesterol (CABG patients; [4]): 114.7 ± 1.1 mg/dL
- Steady state lipid levels: Total cholesterol (CABG patients; [4]): 191.0 ± 1.3 mg/dL
- Steady state lipid levels: Triglycerides (CABG patients; [4]): 163.6 ± 3.4 mg/dL
- Lipid change: HDL cholesterol (CABG patients; [5]): 14.1 ± 3.1%
- Lipid change: LDL cholesterol (CABG patients; [5]): 53.5 ± 6.9%
- Lipid change: Total cholesterol (CABG patients; [5]): 16.9 ± 2.0%
- Lipid change: Triglycerides (CABG patients; [5]): 6.0 ± 5.8%
- Steady state lipid levels: HDL cholesterol (CABG patients; [5]): 46.7 ± 1.6 mg/dL
- Steady state lipid levels: LDL cholesterol (CABG patients; [5]): 115.1 ± 4.3 mg/dL
- Steady state lipid levels: Total cholesterol (CABG patients; [5]): 191.1 ± 4.8 mg/dL
- Steady state lipid levels: Triglycerides (CABG patients; [5]): 151.0 ± 9.6 mg/dL
- Steady state lipid levels: HDL cholesterol (CABG patients; [6]): 43.7 ± 0.6 mg/dL
- Steady state lipid levels: LDL cholesterol (CABG patients; [6]): 133.0 ± 1.3 mg/dL
- Steady state lipid levels: Total cholesterol (CABG patients; [6]): 209.5 ± 1.6 mg/dL
- Steady state lipid levels: Triglycerides (CABG patients; [6]): 164.5 ± 4.4 mg/dL

SMILES: CC(=O)CC(c1ccccc1)c1c(O)c2ccccc2oc1=O (stereo not drawn) [warfarin]
- effect of the warfarin treatment on graft worsening ([1]; low-dose warfarin vs placebo): No effect
